Residues, ends and D or L forms follow the SMILES beside them. *: point of attachment. Tos = Cc1ccc(S(=O)(=O)*)cc1
Work on `COC(=O)C(C)(C)OCc1cc2nc(C(F)(F)F)ccc2n1S(=O)(=O)c1ccc2ncsc2c1` yielded a melting point of 124 to 127 °C. For `CC(O)C#Cc1cc(Cl)cc2nc(-c3ccccc3Cl)oc12` (stereo not given), the melting point was 129 to 131 °C. Compound `CC(C)Cn1c(CNC(=O)OC(C)(C)C)c(-c2ccccc2F)c2cc(C#N)ccc2c1=O` has a melting point of 191 to 192 °C. `O=C(O)COc1c(-c2cccc(C(F)(F)F)c2)cc(C(=O)NCCCCCCc2ccccc2)cc1-c1cccc(C(F)(F)F)c1` showed a melting point of 166 to 169 °C. Compound `CCCc1c(OCCCCCOc2ccc(C(C)=O)cc2CCC(=O)O)ccc2c1OCCC2=O` has a melting point of 115 to 118 °C. For `CCNc1nc2ccc(CCc3ccc(CN4CCCCC4)o3)cc2o1`, the melting point was 98 to 100 °C. With `CN(C)c1ccc(C(=O)C(O)c2cccc(F)c2)cc1` (stereo not given) the melting point was 147 to 149 °C. Work on `CC(C)c1ccc(OC(C)(Cc2ccc(OCCNC(=O)c3ccc(OCC(F)(F)C(F)F)nc3)cc2)C(=O)O)cc1` (stereo not given) yielded a melting point of 173 to 175 °C. For `CN(CCOc1ccc([N+](=O)[O-])cc1)c1ccncc1`, the melting point was 88 to 89 °C. For `COC(=O)C(=C(/C)c1cc(OC)cc(OC)c1)/C(=C\c1cc(OC)cc(OC)c1)C(=O)O`, the melting point was 137 to 140 °C. In the case of `O=C1CCCN1CCCNc1cc(C(c2cc(F)ccc2F)S(=O)(=O)c2ccc(Cl)cc2)c(Cl)cn1` (stereo not given), the melting point is reported as 78 to 80 °C. With `COc1nc(N2CCOCC2)cnc1NS(=O)(=O)c1cccc(Cl)c1Cl` the melting point was 167 to 168 °C. Compound `O=C(O)COc1cc2ccsc2c(Cl)c1Cl` has a melting point of 166 to 167 °C. Work on `O=C(O)c1ccc(F)cc1Sc1ccc(F)cc1` yielded a melting point of 209 to 218 °C. Work on `CC(C)(C)c1cc(CCc2ccccc2NC(=O)NCC2CCCCC2)cc(C(C)(C)C)c1O` yielded a melting point of 208 to 210 °C. For `Cn1nc(-c2c(Cl)cc(C(F)(F)F)cc2Cl)c([N+](=O)[O-])c1N`, the melting point was 107 to 108 °C. `O=C(NC(=O)c1c(Cl)cccc1Cl)Nc1ccc(Sc2ccc(Cl)cc2)nc1` showed a melting point of 160 to 162 °C. With `CCOc1c(C(N)=O)oc2c3ccccc3n(-c3ccccc3)c12` the melting point was 187 to 188 °C. `CCCCNc1nc2cc(C)nn2c2c1cnc1c2cnn1CC` gave a melting point of 160 to 162 °C. `Clc1cc2nc(NC3=NCCN3)[nH]c2c(Cl)c1Cl` showed a melting point of 324 to 326 °C. `S=C1CSc2cccc(Cl)c2N1` gave a melting point of 138 to 140 °C. In the case of `O=C(O)c1cc(-c2ccc(OCc3ccccc3)cc2OCc2ccccc2)no1`, the melting point is reported as 192 to 193 °C. `C=C(n1c(=O)n(CCCl)c2ccccc21)C(F)(F)F` showed a melting point of 158 to 160 °C. `NC(=O)CN1C(=O)[C@@H](N)[C@H](c2ccccc2)Sc2cc(Cl)ccc21` (relative stereo) gave a melting point of 225 to 228 °C. With `Nc1nc(N)c2c(CCCc3ccc(C(=O)N[C@@H](CCC(=O)O)C(=O)O)cc3)cnc-2[nH]1` the melting point was > 250 °C. Compound `CN1CCC(c2n[nH]c3cc(Cl)ccc23)CC1` has a melting point of 211 to 213 °C. Compound `O=C(c1cc(F)cc(F)c1)c1cc(F)cc(F)c1` has a melting point of 79 °C. In the case of `CCCCCCCCCCCCCCNC(=O)Oc1ccc([N+](=O)[O-])cc1OC(=O)NCCCCCCCCCCCCCC`, the melting point is reported as 100 to 104 °C. For `COc1ccc(C(C#N)C2(O)CCCCC2)cc1` (stereo not given), the melting point was 125 to 127 °C. In the case of `Cc1ccc(N2C(=O)C(O)=C(C(=O)c3ccc(OC(F)(F)F)cc3)C2c2ccc(Cn3cnnn3)cc2)nn1` (stereo not given), the melting point is reported as > 300 °C. For `O=C(Nc1ccc2ncccc2c1)OCc1ccccc1`, the melting point was 122 °C. With `OC(CCNCc1ccccc1)(COc1ccc(Cl)cc1)c1ccccc1` (stereo not given) the melting point was 70 to 71 °C. For `Oc1cccc(N(c2ccccc2)c2ccc(-c3ccc(N(c4ccccc4)c4cccc(O)c4)cc3)cc2)c1`, the melting point was 113 to 117 °C. With `O=C1OC2(CCNCC2)CN1Cc1ccccc1` the melting point was 69 to 71 °C. `CNC(=O)c1ccc(N2CCN(Cc3cc4c(c(OC)c3)OC(C)C(=O)N4)CC2)c(Cl)c1` (stereo not given) gave a melting point of 200 to 203 °C. With `CN(C)CCn1ccc(-c2ccc(F)cc2)c1-c1ccncc1` the melting point was 70 to 73 °C. `O=C1c2cc(F)cc(F)c2CC[C@@H]1NC(=O)C(F)(F)F` gave a melting point of 142 to 145 °C. For `O=C1CSC(c2ccc(-n3ccc(=O)cc3)cc2)=NN1`, the melting point was 289 to 291 °C. Compound `COc1ccc(O)c2c1SC1CC3C(NC(=S)c4ccccc4)C(O)=C(C(N)=O)C(=O)C3(O)C(O)=C1C2=O` (stereo not given) has a melting point of 223 °C. Compound `COc1cc(C=O)c(C=O)cc1OCCCl` has a melting point of 113 to 114 °C. `CSC(=S)C1(c2cccc(C)n2)CCCS1` (stereo not given) showed a melting point of 80 °C. Compound `Nc1ncnc2c1c(-c1cccc(O)c1)nn2Cc1oc2ccccc2c(=O)c1-c1ccccc1` has a melting point of 154 to 158 °C. In the case of `CC(=O)N(C)c1cccc(S(=O)(=O)c2ccc(N)cc2)c1`, the melting point is reported as 178 to 180 °C. `CN(C)C1=Nc2cc(Br)ccc2N2CCc3cccc1c32` gave a melting point of 124 to 127 °C. Compound `Cc1cc(CCCCCSc2ccc(C3=NCCO3)cc2)on1` has a melting point of 89 to 91 °C. For `CC1Cc2nc(N)nc(Cl)c2C1` (stereo not given), the melting point was 182 to 183 °C. With `CCCCCCCNC(=O)Oc1ccc2c(c1)CCCN2` the melting point was 67 °C. Compound `COCc1nc2c(N)nc3ccccc3c2s1` has a melting point of 183 to 185 °C. `CCCCc1nc2cccc(C(=O)OC)c2n1Cc1ccc(-n2cccc2-c2nnn[nH]2)cc1` gave a melting point of 186 to 187 °C. `O=C(CCc1ccc2cccc(O)c2n1)NO` gave a melting point of 165 to 167 °C. With `OCCC(c1ccccc1)(c1ccccc1)c1ccccc1` the melting point was 103 to 106 °C. With `Cc1ccc(N(c2ccc(C)cc2)c2c(F)cc(F)c(F)c2F)cc1` the melting point was 95 °C. In the case of `COc1cc(C(C)=O)ccc1OCCCN1CCC(c2n[nH]c3ccccc23)CC1`, the melting point is reported as 171 to 173 °C. Work on `CCCc1cc(F)c(C(=O)O)c([N+](=O)[O-])c1O` yielded a melting point of 128 to 129 °C. `CCOC(=O)c1cc2c3n(ccc-2n1)CC(CCl)=N3` gave a melting point of 270 to 272 °C. Compound `CCCCCCCc1ccc(-c2nc(-c3ccccc3Cl)nn2C)cc1` has a melting point of 64 to 67 °C. Compound `CSc1c(OCC(=O)O)ccc2c1[nH]c1ccccc12` has a melting point of 179 to 180 °C. With `COC(=O)c1c[nH]c(=O)c2ccccc12` the melting point was 258 to 260 °C. `O=[N+]([O-])c1ccc(OC[C@@H]2CCCN2c2ccc3ccccc3n2)cc1` showed a melting point of 118 to 120 °C. In the case of `N#Cc1cccc(C2SC[C@@H](C(=O)O)N2C(=O)CCCCCC(=O)N2C(c3cccc(C#N)c3)SC[C@H]2C(=O)O)c1` (stereo not given in full), the melting point is reported as 105 to 112 °C. `CC(=O)NC(=NNNc1ccccc1[N+](=O)[O-])c1ccccc1Cl` showed a melting point of 196 to 198 °C. Compound `COC(=O)c1cccc2c1NCC2` has a melting point of 70 to 73 °C. Compound `c1ccc(-c2cn3c(n2)Cc2ccccc2C3)cc1` has a melting point of 195 to 197 °C. In the case of `Cn1nc(-c2cc(S)c(Cl)cc2F)c(Cl)c1C(F)(F)F`, the melting point is reported as 56 to 58 °C. `Cc1ccc(S(=O)(=O)NCC(=O)N[C@@H](Cc2ccccc2)C(=O)O)cc1` (Tos-Gly-Phe-OH) gave a melting point of 157 to 161 °C. Compound `Cc1nc(-c2cccnc2)c2nc(-c3ccccc3)cc-2[nH]1` has a melting point of 252 to 254 °C. Work on `CNc1nc(Nc2ccc(CNC(=O)OC(C)(C)C)cc2)ncc1[N+](=O)[O-]` yielded a melting point of 260 °C. Work on `CC(C)C(C)(NC(c1ccccc1)c1ccccc1)P(O)O` (stereo not given) yielded a melting point of 177 °C. Compound `CCCCCN(Cc1ccc(-c2ccccc2S(=O)(=O)NC(=O)c2ccccc2Cl)cc1)C(=O)N1CCc2ccccc21` has a melting point of 83 to 85 °C. `C=CCNCc1noc(-c2ncn3c2CN(C)C(=O)c2c(Cl)cccc2-3)n1` gave a melting point of 171 to 174 °C.
